pIC50: −log10 of the molar value. Where two headings read alike, the source gives them in different places.

These results are taken from publication PMC9765458 (Science Translational Medicine, 2022).

Experiment [1] has as its system wild-type VSV-G-3CL^pro-L. Description: microbe, parasite or virus in culture. The class given is cell-based.
The subject of experiment [2] is recombinant wt SARS-CoV-2-mCherry (rWA1). Description: microbe, parasite or virus in culture. It counts as cell-based.

As to `CC(C)(C)[C@H](NC(=O)C(F)(F)F)C(=O)N1C[C@H]2[C@@H]([C@H]1C(=O)N[C@H](C#N)C[C@@H]1CCNC1=O)C2(C)C` [Nirmatrelvir, nirmatrelvir], the replication inhibited in experiment [1] is reported as 10^6 fold. Moreover, the pIC50 in experiment [1] (Vesicular stomatitis virus, BHK-21, 24 h, read-out: half maximal inhibitor concentration (IC50) of virus replication) is around 6.73; in experiment [2] (Severe acute respiratory syndrome coronavirus 2, read-out: IC50 48 hpi), 8.06; in experiment [2] (Severe acute respiratory syndrome coronavirus 2, read-out: IC50 72 hpi), 8.07.
